Data reported in patent publication US8937091B2 (Japan Science and Technology Agency, priority 2009, dated 2015).

Legend:
[1] = test system: IICR (IP3 induced calcium release) in CHO cells; assay: Assay of IICR (IP3 induced calcium release)-inhibiting action; format: cell-based, Chinese hamster; settings: CHO cells, 10 μM ATP; for inhibition at 10 µM / inhibition at 30 µM / inhibition at 100 µM: Cricetulus griseus, CHO, read-out: IICR level (percentage of inhibition); for inhibition at 100 µM: test compound 100 μmol
Summary of the method: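 CHO cell medium replaced with calcium-containing BSS; compound added 1 min later, then 10 μM ATP after a further 2 min. Percent inhibition of the ATP-evoked rise in intracellular calcium determined at each compound concentration.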

[2] = test system: SOCE (store operated calcium entry) in CHO cells; assay: Assay of SOCE (store operated calcium entry)-inhibiting action; format: cell-based, Chinese hamster; settings: Cricetulus griseus, CHO, CHO cells, thapsigargin, read-out: SOCE level (percentage of inhibition); for inhibition at 30 µM: test compound 30 μmol; for inhibition at 100 µM: test compound 100 μmol; for inhibition at 10 µM: test compound 10 μmol
Summary of the method: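 CHO cells in calcium-free BSS received compound, then 1 μM thapsigargin 2 min later to deplete stores; after 9 min, 2 mM calcium chloride (final) added. Percent inhibition of the rise in intracellular calcium determined at various compound concentrations.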

SMILES: CC(O)CNCCC(=O)c1cnccn1 (stereo not shown) [Example 281, 2-(N-2-hydroxypropyl)aminoethyl-2-pyrazylketone]
- inhibition at 10 µM ([1]; test compound 10 μmol): 20%
- inhibition at 30 µM ([1]; test compound 30 μmol): 20%
- inhibition at 100 µM [1]: 50%
- inhibition at 30 µM [2]: 0%
- inhibition at 100 µM [2]: 0%

SMILES: O=C(CCN1CCCC1CO)c1cnccn1 (stereo not shown) [Example 282, 2-(2-hydroxymethylpyrrolidino)ethyl-2-pyrazylketone]
- inhibition at 10 µM ([1]; test compound 10 μmol): 0%
- inhibition at 30 µM ([1]; test compound 30 μmol): 20%
- inhibition at 100 µM [1]: 50%
- inhibition at 30 µM [2]: 0%
- inhibition at 100 µM [2]: 0%

SMILES: CC(C)N(CCC(=O)c1cc2ccccc2s1)Cc1ccccc1 [Example 283, 2-(N-isopropylbenzyl)aminoethyl-2-benzothienylketone]
- inhibition at 10 µM ([1]; test compound 10 μmol): 50%
- inhibition at 30 µM ([1]; test compound 30 μmol): 80%
- inhibition at 100 µM [1]: 50%
- inhibition at 30 µM [2]: 0%
- inhibition at 100 µM [2]: 40%

SMILES: CC(C)N(CCO)CCC(=O)c1cc2ccccc2s1 [Example 284, 2-(N-isopropyl-2-hydroxyethyl)aminoethyl-2-benzothienylketone]
- inhibition at 10 µM ([1]; test compound 10 μmol): 0%
- inhibition at 30 µM ([1]; test compound 30 μmol): 0%
- inhibition at 100 µM [1]: 40%
- inhibition at 30 µM [2]: 0%
- inhibition at 100 µM [2]: 0%

SMILES: CC(C)(C)N(CCC(=O)c1cc2ccccc2s1)Cc1ccccc1 [Example 285, 2-(N-t-butylbenzyl)aminoethyl-2-benzothienylketone]
- inhibition at 10 µM ([1]; test compound 10 μmol): 50%
- inhibition at 30 µM ([1]; test compound 30 μmol): 80%
- inhibition at 100 µM [1]: 60%
- inhibition at 30 µM [2]: 0%
- inhibition at 100 µM [2]: 50%

SMILES: CCN(CCC(=O)c1nccs1)Cc1ccccc1 [Example 289, 2-(N-ethylbenzyl)aminoethyl-2-thiazolylketone]
- inhibition at 10 µM ([1]; test compound 10 μmol): 40%
- inhibition at 30 µM ([1]; test compound 30 μmol): 80%
- inhibition at 100 µM [1]: 100%
- inhibition at 30 µM [2]: 0%
- inhibition at 100 µM [2]: 10%

SMILES: O=C(CCN(CCO)Cc1ccccc1)c1nccs1 [Example 290, 2-(N-2-hydroxyethylbenzyl)aminoethyl-2-thiazolylketone]
- inhibition at 10 µM ([1]; test compound 10 μmol): 40%
- inhibition at 30 µM ([1]; test compound 30 μmol): 60%
- inhibition at 100 µM [1]: 90%
- inhibition at 30 µM [2]: 0%
- inhibition at 100 µM [2]: 0%

SMILES: CN(CCO)CCC(=O)c1nccs1 [Example 291, 2-(N-2-hydroxyethylmethyl)aminoethyl-2-thiazolylketone]
- inhibition at 10 µM ([1]; test compound 10 μmol): 40%
- inhibition at 30 µM ([1]; test compound 30 μmol): 70%
- inhibition at 100 µM [1]: 100%
- inhibition at 10 µM [2]: 0%
- inhibition at 30 µM [2]: 0%
- inhibition at 100 µM [2]: 0%

SMILES: CC(C)N(CCC(=O)c1ccc(Br)s1)Cc1ccccc1 [Example 292, 2-(N-isopropylbenzyl)aminoethyl-5-bromo-2-thienylketone]
- inhibition at 10 µM ([1]; test compound 10 μmol): 50%
- inhibition at 30 µM ([1]; test compound 30 μmol): 80%
- inhibition at 100 µM [1]: 90%
- inhibition at 10 µM [2]: 0%
- inhibition at 30 µM [2]: 20%
- inhibition at 100 µM [2]: 40%

SMILES: CCCCN(CCO)CCC(=O)c1ccc(Br)s1 [Example 293, 2-(N-2-hydroxyethylbutyl)aminoethyl-5-bromo-2-thienylketone]
- inhibition at 10 µM ([1]; test compound 10 μmol): 80%
- inhibition at 30 µM ([1]; test compound 30 μmol): 50%
- inhibition at 100 µM [1]: 90%
- inhibition at 10 µM [2]: 0%
- inhibition at 30 µM [2]: 0%
- inhibition at 100 µM [2]: 10%

SMILES: CC(C)(C)N(CCO)CCC(=O)c1ccc(Br)s1 [Example 294, 2-(N-2-hydroxyethyl-t-butyl)aminoethyl-5-bromo-2-thienylketone]
- inhibition at 100 µM [1]: 50%
- IICR level (percentage of inhibition) ([1]; test compound 10 μmol): 70%
- IICR level (percentage of inhibition) ([1]; test compound 30 μmol): 40%
- inhibition at 10 µM [2]: 0%
- inhibition at 100 µM [2]: 10%

SMILES: CC(C)N(CCC(=O)n1nnc2ccccc21)Cc1ccccc1 [Example 295, 2-(N-isopropylbenzyl)aminoethyl-1-benzotriazoketone]
- inhibition at 10 µM ([1]; test compound 10 μmol): 80%
- inhibition at 30 µM ([1]; test compound 30 μmol): 70%
- inhibition at 100 µM [1]: 60%
- inhibition at 10 µM [2]: 0%
- inhibition at 30 µM [2]: 0%
- inhibition at 100 µM [2]: 0%
